Reference: patent US20140187548A1, “6 SUBSTITUTED IMIDAZOPYRAZINES FOR USE AS MPS-1 AND TKK INHIBITORS IN THE TREATMENT OF HYPERPROLIFERATIVE DISORDERS” (BAYER INTELLECTUAL PROPERTY GMBH, priority 2010, published 2014)
Structures can show the parent of a compound that is named as a salt.

Each compound was assayed against T1, human kinase Mps-1 (Homo sapiens, UniProt P33981) (assay: Mps-1 kinase assay (TR-FRET)). Settings: N-terminally GST-tagged human full length recombinant Mps-1; 10 μM ATP; 1 μM peptide substrate; 15 min pre-incubation; 60 min at 22° C.
T1 construct: N-terminally GST-tagged human full length recombinant Mps-1 kinase; GST (N); purchased Invitrogen, Karslruhe, Germany PV4071
T1 sequence (P33981 1-857): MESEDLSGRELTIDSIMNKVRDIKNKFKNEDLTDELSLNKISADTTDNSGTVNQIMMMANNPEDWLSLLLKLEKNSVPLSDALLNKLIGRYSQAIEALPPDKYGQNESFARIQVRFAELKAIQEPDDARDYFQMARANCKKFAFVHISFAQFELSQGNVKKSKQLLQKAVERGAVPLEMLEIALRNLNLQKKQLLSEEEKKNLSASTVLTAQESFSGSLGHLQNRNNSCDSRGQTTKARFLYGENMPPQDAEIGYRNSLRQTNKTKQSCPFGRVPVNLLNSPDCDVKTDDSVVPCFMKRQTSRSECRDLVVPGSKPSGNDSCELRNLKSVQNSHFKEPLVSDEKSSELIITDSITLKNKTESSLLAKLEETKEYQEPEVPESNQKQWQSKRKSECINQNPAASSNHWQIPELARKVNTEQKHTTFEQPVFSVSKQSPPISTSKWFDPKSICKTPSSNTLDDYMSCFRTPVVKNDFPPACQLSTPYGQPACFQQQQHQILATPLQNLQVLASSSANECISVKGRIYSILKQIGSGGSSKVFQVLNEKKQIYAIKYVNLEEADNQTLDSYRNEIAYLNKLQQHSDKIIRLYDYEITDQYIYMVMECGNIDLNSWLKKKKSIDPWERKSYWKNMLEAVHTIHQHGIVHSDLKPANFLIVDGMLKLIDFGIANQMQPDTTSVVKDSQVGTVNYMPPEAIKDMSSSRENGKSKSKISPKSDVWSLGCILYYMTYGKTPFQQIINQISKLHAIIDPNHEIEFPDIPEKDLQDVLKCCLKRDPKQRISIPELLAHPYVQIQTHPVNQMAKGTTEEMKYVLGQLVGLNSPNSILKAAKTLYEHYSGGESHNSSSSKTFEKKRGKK
Type: biochemical
Experimental: The human kinase Mps-1 phosphorylates a biotinylated substrate peptide. Detection of the phosphorylated product is achieved by time-resolved fluorescence resonance energy transfer (TR-FRET) from Europium-labelled anti-phospho-Serine/Threonine antibody as donor to streptavidin labelled with cross-linked allophycocyanin (SA-XLent) as acceptor. Compounds are tested for their inhibition of the kinase activity.
N-terminally GST-tagged human full length recombinant Mps-1 kinase (purchased from Invitrogen, Karslruhe, Germany, cat. no PV4071) was used. As substrate for the kinase reaction a biotinylated peptide of the amino-acid sequence […] (C-terminus in amide form, purchased from Biosynthan GmbH, Berlin) was used.
The concentration of Mps-1 in the assay was adjusted to the activity of the enzyme lot and was chosen appropriate to have the assay in the linear range, typical enzyme concentrations were in the range of about 1 nM (final conc. in the 5 μl assay volume).
The resulting mixture was incubated 1 h at 22° C. to allow the binding of the phosphorylated peptide to the anti-phospho(Ser/Thr)-Europium-antibody. Subsequently the amount of phosphorylated substrate was evaluated by measurement of the resonance energy transfer from the Europium-labelled anti-phospho(Ser/Thr) antibody to the Streptavidin-XLent. Therefore, the fluorescence emissions at 620 nm and 665 nm after excitation at 350 nm was measured in a Viewlux TR-FRET reader (PerkinElmer LAS, Rodgau-Jügesheim, Germany). The “blank-corrected normalized ratio” (a Viewlux specific readout, similar to the traditional ratio of the emissions at 665 nm and at 622 nm, in which blank and Eu-donor crosstalk are subtracted from the 665 nm signal before the ratio is calculated) was taken as the measure for the amount of phosphorylated substrate.

Point of comparison: `CC(C)CNc1nc(-c2ccccc2C(=O)N(C)C)cn2c(-c3ccc(C(=O)NC4CC4)cc3)cnc12` [Example 1-28, 2-{3-[4-(cyclopropyl-carbamoyl)phenyl]-8-[(2-methylpropyl)amino]imidazo[1,2-a]pyrazin-6-yl}-N,N-dimethyl-benzamide], IC50 8.2 nM. Against it:
- CC(C)CNc1nc(-c2ccc(SC3CC3)cc2)cn2c(-c3ccc(C(=O)NC4CC4)cc3)cnc12 [Example 1-127, N-cyclopropyl-4-{6-[4-(cyclopropylsulfanyl)phenyl]-8-[(2-methylpropyl)amino]imidazo[1,2-a]pyrazin-3-yl} benzamide] — 3.9-fold higher, 32.2 nM
- CC(C)CNc1nc(-c2cccc(C(=O)NCc3ccccc3)c2)cn2c(-c3ccc(C(=O)NC4CC4)cc3)cnc12 [Example 1-55, N-benzyl-3-{3-[4-(cyclo-propylcarbamoyl)phenyl]-8-[(2-methylpropyl)amino]imidazo[1,2-a]pyrazin-6-yl}benzamide] — 1.8-fold lower, 4.6 nM
- O=C(NC1CC1)c1ccc(-c2cnc3c(NC[C@@H](O)CO)nc(-c4ccccc4)cn23)cc1 [Example 2-81, N-cyclopropyl-4-(8-{[(2R)-2,3-dihydroxypropyl]amino}-6-phenylimidazo[1,2-a]pyrazin-3-yl)benzamide] — 4.3-fold lower, 1.9 nM
- O=C(NC1CC1)c1ccc(-c2cnc3c(NCCCC(F)(F)F)nc(-c4ccccc4)cn23)cc1 [Example 2-51, N-cyclopropyl-4-{6-phenyl-8-[(4,4,4-trifluorobutyl)amino]imidazo[1,2-a]pyrazin-3-yl}benzamide] — 3.4-fold lower, 2.4 nM
- NCCCNc1nc(-c2ccccc2)cn2c(-c3ccc(C(=O)NC4CC4)cc3)cnc12 [Example 8-1, 4-{8-[(3-Aminopropyl)amino]-6-phenylimidazo[1,2-a]pyrazin-3-yl}-N-cyclopropylbenzamide hydrochloride] — 2.6-fold higher, 21.1 nM
- CNC(=O)CNc1nc(-c2ccccc2)cn2c(-c3ccc(C(=O)NC4CC4)cc3)cnc12 [Example 2-49, N-cyclopropyl-4-(8-{[2-(methylamino)-2-oxoethyl]amino}-6-phenylimidazo[1,2-a]pyrazin-3-yl)benzamide] — 3.9-fold higher, 32.2 nM
- O=C(NC1CC1)c1ccc(-c2cnc3c(NCC4CCC(C(F)(F)F)CC4)nc(-c4ccccc4)cn23)cc1 (mixture of isomers) [Example 2-86, N-cyclopropyl-4-[6-phenyl-8-([[4-(trifluoromethyl)cyclohexyl]methyl]amino)imidazo[1,2-a]pyrazin-3-yl]benzamide] — 1.5-fold higher, 12.4 nM
- CC(C)(O)CNc1nc(-c2cc(F)c(F)cc2F)cn2c(-c3ccc(C(=O)NC4CC4)cc3)cnc12 [Example 1-133, N-cyclopropyl-4-{8-[(2-hydroxy-2-methylpropyl)amino]-6-(2,4,5-trifluoro-phenyl)imidazo[1,2-a]pyrazin-3-yl}benzamide] — within 1.5-fold, 6.1 nM
- CN(C)c1ccc(CNc2nc(-c3ccccc3)cn3c(-c4ccc(C(=O)NC5CC5)cc4)cnc23)cc1 [Example 2-44, N-cyclopropyl-4-(8-{[4-(dimethylamino)benzyl]amino}-6-phenylimidazo[1,2-a]pyrazin-3-yl)benzamide] — 2.2-fold higher, 18.1 nM
- CC(C)(O)CNc1nc(-c2ccc(F)cc2)cn2c(-c3ccc(C(=O)NC4CC4)c(Cl)c3)cnc12 [Example 1-98, 2-chloro-N-cyclopropyl-4-{6-(4-fluorophenyl)-8-[(2-hydroxy-2-methyl-propyl)amino]imidazo [1,2-a]pyrazin-3-yl} benzamide] — 1.6-fold higher, 12.9 nM
- CC(C)CNc1nc(-c2ccc3ncccc3c2)cn2c(-c3ccc(C(=O)NC4CC4)cc3)cnc12 [Example 1-76, N-cyclopropyl-4-{8-[(2-methylpropyl)amino]-6-(quinolin-6-yl)imidazo [1,2-a]pyrazin-3-yl} benzamide] — 2.5-fold lower, 3.3 nM
- CC(C)CNc1nc(-c2ccccc2CO)cn2c(-c3ccc(C(=O)NC4CC4)cc3)cnc12 [Example 1-77, N-cyclopropyl-4-{6-[2-(hydroxymethyl)phenyl]-8-[(2-methylpropyl)amino]imidazo[1,2-a]pyrazin-3-yl}benzamide] — 6.8-fold lower, 1.2 nM
- CC(C)CNc1nc(-c2cccc(C(=O)NC3CC3)c2)cn2c(-c3ccc(C(=O)NC4CC4)cc3)cnc12 [Example 1-56, N-cyclopropyl-3-{3-[4-(cyclopropylcarbamoyl)phenyl]-8-[(2-methylpropyl)amino]imidazo [1,2-a]pyrazin-6-yl} benzamide] — 5.1-fold lower, 1.6 nM
- CSc1ccc(-c2cn3c(-c4ccc(C(=O)NC5CC5)cc4)cnc3c(NCC(C)C)n2)cc1 [Example 1-18, N-cyclopropyl-4-{8-[(2-methylpropyl)amino]-6-[4-(methylsulfanyl)phenyl]imidazo[1,2-a]pyrazin-3-yl}benzamide] — within 1.5-fold, 8.5 nM
- CN(C)c1ccc(-c2cn3c(-c4ccc(C(=O)NC5CC5)c(Cl)c4)cnc3c(NCC3CCCO3)n2)cc1 (stereo not shown) [Example 1-105, 2-chloro-N-cyclopropyl-4-{6-[4-(dimethylamino)phenyl]-8-[(tetrahydro-furan-2-ylmethyl)amino]imidazo[1,2-a]pyrazin-3-yl}benzamide] — 9.5-fold higher, 78.3 nM
- O=C(NC1CC1)c1ccc(-c2cnc3c(NCC4CCCC4)nc(-c4ccccc4)cn23)cc1 [Example 2-72, 4-{8-[(Cyclopentylmethyl)amino]-6-phenylimidazo[1,2-a]pyrazin-3-yl}-N-cyclopropylbenzamide] — 3.3-fold lower, 2.5 nM
- CC(C)CNc1nc(-c2ccc(C(=O)N(C)C)cc2)cn2c(-c3ccc(C(=O)NC4CC4)cc3)cnc12 [Example 1-16, 4-{3-[4-(cyclopropyl-carbamoyl)phenyl]-8-[(2-methylpropyl)amino]imidazo[1,2-a]pyrazin-6-yl}-N,N-dimethyl-benzamide] — 3-fold lower, 2.7 nM
- O=C(NC1CC1)c1ccc(-c2cnc3c(NCc4ccc(Cl)s4)nc(-c4ccccc4)cn23)cc1 [Example 2-60, 4-(8-{[(5-chlorothiophen-2-yl)methyl]amino}-6-phenylimidazo [1,2-a]pyrazin-3-yl)-N-cyclopropylbenzamide] — 1.7-fold lower, 4.9 nM
- CC(C)CNc1nc(-c2cc(F)cc(F)c2)cn2c(-c3ccc(C(=O)NC4CC4)cc3)cnc12 [Example 1-60, N-cyclopropyl-4-{6-(3,5-difluorophenyl)-8-[(2-methylpropyl)amino]imidazo[1,2-a]pyrazin-3-yl}benzamide] — 5.2-fold higher, 42.4 nM
- Cc1ccc(-c2cn3c(-c4ccc(C(=O)NC5CC5)cc4)cnc3c(NCC(C)C)n2)cc1 [Example 1-7, N-cyclopropyl-4-{6-(4-methylphenyl)-8-[(2-methylpropyl)amino]imidazo[1,2-a]pyrazin-3-yl}benzamide] — within 1.5-fold, 5.7 nM
- O=C(NC1CC1)c1ccc(-c2cnc3c(NCCN4CCCC4)nc(-c4ccccc4)cn23)cc1 [Example 2-25, N-cyclopropyl-4-(6-phenyl-8-{[2-(pyrrolidin-1-yl)ethyl]amino}imidazo[1,2-a]pyrazin-3-yl)benzamide] — 3.3-fold higher, 27.4 nM
- COCCNc1nc(-c2ccccc2)cn2c(-c3ccc(C(=O)NC4CC4)cc3)cnc12 [Example 2-12, N-cyclopropyl-4-{8-[(2-methoxyethyl)amino]-6-phenylimidazo[1,2-a]pyrazin-3-yl}benzamide] — 4.8-fold lower, 1.7 nM
- CCN(CC)CCNc1nc(-c2ccccc2)cn2c(-c3ccc(C(=O)NC4CC4)cc3)cnc12 [Example 2-2, N-cyclopropyl-4-(8-{[2-(diethylamino)ethyl]amino}-6-phenylimidazo[1,2-a]pyrazin-3-yl)benzamide] — 5.8-fold higher, 47.7 nM
- O=C(NC1CC1)c1ccc(-c2cnc3c(NCCCN4CCCC4=O)nc(-c4ccccc4)cn23)cc1 [Example 2-9, N-cyclopropyl-4-(8-{[3-(2-oxopyrrolidin-1-yl)propyl]amino}-6-phenylimidazo[1,2-a]pyrazin-3-yl)benzamide] — 1.7-fold lower, 4.8 nM
